The subject of the experiment is hippocampal tissue grown under SMC. The experiment is described as follows: field EPSP evoked by electrical stimulation in hippocampal tissue cultured 10 days under simulated microgravity conditions. Type of experiment: cell-based, Sprauge-Dawley rats. The text has this: In order to determine whether hippocampal tissue grown under SMC is able to generate electrical signals, hippocampal tissue grown under SMC for 10 days as described was electrically stimulated and field excitatory postsynaptic potential (EPSP) recorded. […] One important characteristic of the response is the presence of paired-pulse facilitation (PPF) (FIGS. 3A and 3B). PDF have been described and characterized in acute slices from the hippocampus and are an example of frequency-dependent short-term plasticity of excitatory synapses. This phenomenon is accounted for by the residual calcium hypothesis, according to which the small fraction of calcium entering the terminal during the first spike increases the probability of transmitter release to a second action potential (Zucker, 1989). […]
Sprauge-Dawley rats (7-9 days old) are quickly decapitated and the brain is rapidly removed and placed in ice-cold Gey's solution (g/L): NaCl (7), KCl (0.37), MgSO4-7H2O (0.06), MgCl2-6H2O (0.21), KH2PO4 (0.03), Na2HPO4-7H2O (0.23), Glucose (1), CaCl2-2H2O (0.23) and NaHCO3 ([…]). […] The slices will be monitored daily and rotary speed will be adjusted in order to avoid any free falling. […]

In the case of `NC(CCCP(=O)(O)O)C(=O)O` (centres unmarked) [APV, amino-5-phosphonovaleric acid], the “effect on field EPSP (NMDA subtype glutamate receptor antagonist)” value (100 μM APV, hippocampal tissue grown under SMC, vs no antagonist) is “partially block”. Take `[Cl][Co][Cl]` [CoCl2, cobalt chloride]: the “effect on field EPSP (dependence on voltage gated calcium current)” value (perfused with 1 mM CoCl2, hippocampal tissue grown under SMC 10 days, reversible after washout) is on record as “reversibly blocked”.

The record behind these values is patent US20040185558A1, “Method for culturing brain tissue in three dimensions” (priority 2003, published 2004).
